Legend:
IRAK4 = IRAK4 (Homo sapiens (Human), UniProt Q9NWZ3); assay: IRAK4 Inhibition Assay; assay type: biochemical; details: ATP 500 μM; IRAK4 0.6 nM
Method in brief: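 Mobility-shift kinase assay: 0.6 nM IRAK4, 500 μM ATP, 1.5 μM fluorescent peptide, 60 min, room temperature. Percent inhibition was normalised between enzyme-free and DMSO-only wells.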

[1] = tested on: Human whole blood stimulated with a TLR2 agonist (lipoteichoic acid), IL-6 levels; assay: IRAK4 Whole Blood Assay; assay type: cell-based; details: lipoteichoic acid 10 μg/mL
Method in brief: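 IL-6 was quantified by cytometric bead assay in supernatants of human blood (ACD-A) stimulated for 5 h with lipoteichoic acid at 10 μg/mL final. Compound exposure preceded stimulation for 60 min at 37 °C, 5% CO2.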

IRAK4, sequence (Q9NWZ3 whole entry, species assumed): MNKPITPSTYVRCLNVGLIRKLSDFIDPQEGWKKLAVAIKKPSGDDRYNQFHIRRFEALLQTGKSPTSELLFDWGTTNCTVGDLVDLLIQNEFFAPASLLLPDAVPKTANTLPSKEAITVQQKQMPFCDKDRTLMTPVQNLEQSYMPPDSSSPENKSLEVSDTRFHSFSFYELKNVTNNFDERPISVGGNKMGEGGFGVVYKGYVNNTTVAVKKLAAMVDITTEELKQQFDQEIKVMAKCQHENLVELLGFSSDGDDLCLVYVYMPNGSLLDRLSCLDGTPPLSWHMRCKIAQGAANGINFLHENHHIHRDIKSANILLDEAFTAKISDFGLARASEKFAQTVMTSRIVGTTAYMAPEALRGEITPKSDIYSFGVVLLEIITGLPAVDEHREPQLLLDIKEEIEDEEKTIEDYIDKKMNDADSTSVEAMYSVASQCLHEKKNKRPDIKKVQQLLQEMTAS

An IC50 (IRAK4) of 2 nM and an EC50 ([1]; Homo sapiens) of 730 nM were found for `CCN1CC(n2cc(-c3cnc(-n4ncc5cc(C#N)cnc54)cc3NC(C)C)nn2)C1` [Example 149, 1-(5-(1-(1-ethylazetidin-3-yl)-1H-1,2,3-triazol-4-yl)-4-(isopropylamino)pyridin-2-yl)-1H-pyrazolo[3,4-b]pyridine-5-carbonitrile] in this work.
An IC50 (IRAK4) of 2 nM and an EC50 ([1]; Homo sapiens) of 1610 nM were found for `CC(C)Nc1cc(-n2ncc3cc(C#N)cnc32)ncc1-c1cn(C2CN(C)C2)nn1` [Example 151, 1-(4-(isopropylamino)-5-(1-(1-methylazetidin-3-yl)-1H-1,2,3-triazol-4-yl)pyridin-2-yl)-1H-pyrazolo[3,4-b]pyridine-5-carbonitrile, 2TFA] in this work.
An IC50 (IRAK4) of 2 nM and an EC50 [1] of 520 nM were found for `CC(=O)N1CCC(n2cc(-c3cnc(-n4ncc5cc(C#N)cnc54)cc3NC(C)C)nn2)C1` (stereo not shown) [Example 158, 1-(5-(1-(1-acetylpyrrolidin-3-yl)-1H-1,2,3-triazol-4-yl)-4-(isopropylamino)pyridin-2-yl)-1H-pyrazolo[3,4-b]pyridine-5-carbonitrile] in this work.
An IC50 (IRAK4) of 8 nM and an EC50 ([1]; Homo sapiens) of 600 nM were found for `CC(C)Nc1cc(-n2ncc3cc(C#N)cnc32)ncc1-c1cn(C)nn1` [Example 164, 1-(4-(isopropylamino)-5-(1-methyl-1H-1,2,3-triazol-4-yl)pyridin-2-yl)-1H-pyrazolo[3,4-b]pyridine-5-carbonitrile] in this work.
An IC50 (IRAK4) of 17 nM and an EC50 ([1]; Homo sapiens) of 2140 nM were found for `CC(C)Nc1cc(-n2ncc3cc(C#N)cnc32)ncc1-c1cn(C[C@H](N)Cc2ccccc2)nn1` [Example 169, (R)-1-(5-(1-(2-amino-3-phenylpropyl)-1H-1,2,3-triazol-4-yl)-4-(isopropylamino)pyridin-2-yl)-1H-pyrazolo[3,4-b]pyridine-5-carbonitrile] in this work.
An IC50 (IRAK4) of 6 nM and an EC50 ([1]; Homo sapiens) of 1160 nM were found for `CC(C)Nc1cc(-n2ncc3cc(C#N)cnc32)ncc1-c1cn(CCCN)nn1` [Example 171, 1-(5-(1-(3-aminopropyl)-1H-1,2,3-triazol-4-yl)-4-(isopropylamino)pyridin-2-yl)-1H-pyrazolo[3,4-b]pyridine-5-carbonitrile] in this work.
An IC50 (IRAK4) of 13 nM and an EC50 ([1]; Homo sapiens) of 2100 nM were found for `CC(C)Nc1cc(-n2ncc3cc(C#N)cnc32)ncc1-c1cn([C@H]2CCN(C(=O)OC(C)(C)C)C[C@H]2O)nn1` [Example 176, (3R,4S)-tert-butyl 4-(4-(6-(5-cyano-1H-pyrazolo[3,4-b]pyridin-1-yl)-4-(isopropylamino)pyridin-3-yl)-1H-1,2,3-triazol-1-yl)-3-hydroxypiperidine-1-carboxylate] in this work.
An IC50 (IRAK4) of 5 nM and an EC50 ([1]; Homo sapiens) of 750 nM were found for `CC(C)Nc1cc(-n2ncc3cc(C#N)cnc32)ncc1-c1cn([C@H]2CCN(S(C)(=O)=O)C[C@H]2OS(C)(=O)=O)nn1` [Example 182, (3R,4S)-4-(4-(6-(5-cyano-1H-pyrazolo[3,4-b]pyridin-1-yl)-4-(isopropylamino)pyridin-3-yl)-1H-1,2,3-triazol-1-yl)-1-(methylsulfonyl)piperidin-3-yl methanesulfonate] in this work.
An IC50 (IRAK4) of 10 nM and an EC50 ([1]; Homo sapiens) of 520 nM were found for `CC(C)Nc1cc(-n2ncc3cc(C#N)cnc32)ncc1-c1cn([C@H]2CCN(C(=O)c3ccccn3)C[C@H]2O)nn1` [Example 183, 1-(5-(1-((3R,4S)-3-hydroxy-1-picolinoylpiperidin-4-yl)-1H-1,2,3-triazol-4-yl)-4-(isopropylamino)pyridin-2-yl)-1H-pyrazolo[3,4-b]pyridine-5-carbonitrile] in this work.
An IC50 (IRAK4) of 8 nM and an EC50 ([1]; Homo sapiens) of 1040 nM were found for `CC(C)Nc1cc(-n2ncc3cc(C#N)cnc32)ncc1-c1cn([C@H]2CCN(C(=O)c3ccncc3)C[C@H]2O)nn1` [Example 185, 1-(5-(1-((3R,4S)-3-hydroxy-1-isonicotinoylpiperidin-4-yl)-1H-1,2,3-triazol-4-yl)-4-(isopropylamino)pyridin-2-yl)-1H-pyrazolo[3,4-b]pyridine-5-carbonitrile] in this work.
An IC50 (IRAK4) of 16 nM and an EC50 ([1]; Homo sapiens) of 1780 nM were found for `CC(C)Nc1cc(-n2ncc3cc(C#N)cnc32)ncc1-c1cn([C@@H]2CCNC[C@@H]2O)nn1` [Example 186, 1-(5-(1-((3S,4R)-3-hydroxypiperidin-4-yl)-1H-1,2,3-triazol-4-yl)-4-(isopropylamino)pyridin-2-yl)-1H-pyrazolo[3,4-b]pyridine-5-carbonitrile] in this work.
An IC50 (IRAK4) of 6 nM and an EC50 ([1]; Homo sapiens) of 620 nM were found for `CC(=O)N1CCN(C(=O)Cn2cc(-c3cnc(-n4ncc5cc(C#N)cnc54)cc3NC(C)C)nn2)CC1` [Example 194, 1-(5-(1-(2-(4-acetylpiperazin-1-yl)-2-oxoethyl)-1H-1,2,3-triazol-4-yl)-4-(isopropylamino)pyridin-2-yl)-1H-pyrazolo[3,4-b]pyridine-5-carbonitrile] in this work.
An IC50 (IRAK4) of 3 nM and an EC50 ([1]; Homo sapiens) of 1400 nM were found for `CC(C)Nc1cc(-n2ncc3cc(C#N)cnc32)ncc1-c1cn([C@H]2CC[C@H](NC(=O)OC(C)(C)C)CC2)nn1` [Example 212, tert-butyl ((trans)-4-(4-(6-(5-cyano-1H-pyrazolo[3,4-b]pyridin-1-yl)-4-(isopropylamino)pyridin-3-yl)-1H-1,2,3-triazol-1-yl)cyclohexyl)carbamate] in this work.
An IC50 (IRAK4) of 12 nM and an EC50 ([1]; Homo sapiens) of 2210 nM were found for `CC(C)Cn1cnc(-c2cnc(-n3ncc4cc(C#N)cnc43)cc2NC(C)C)c1` [Example 221, 1-(5-(1-isobutyl-1H-imidazol-4-yl)-4-(isopropylamino)pyridin-2-yl)-1H-pyrazolo[3,4-b]pyridine-5-carbonitrile] in this work.
An IC50 (IRAK4) of 17 nM and an EC50 ([1]; Homo sapiens) of 5590 nM were found for `CC(C)Nc1cc(-n2ncc3cc(C#N)cnc32)ncc1-c1cn(C(C)C)cn1` [Example 225, 1-(5-(1-isopropyl-1H-imidazol-4-yl)-4-(isopropylamino)pyridin-2-yl)-1H-pyrazolo[3,4-b]pyridine-5-carbonitrile] in this work.
An IC50 (IRAK4) of 16 nM and an EC50 ([1]; Homo sapiens) of 1480 nM were found for `CC(C)Nc1cc(-n2ncc3cc(C#N)cnc32)ncc1-c1cn(CC(F)F)cn1` [Example 226, 1-(5-(1-(2,2-difluoroethyl)-1H-imidazol-4-yl)-4-(isopropylamino)pyridin-2-yl)-1H-pyrazolo[3,4-b]pyridine-5-carbonitrile] in this work.
An IC50 (IRAK4) of 10 nM and an EC50 ([1]; Homo sapiens) of 590 nM were found for `CC(C)Nc1cc(-n2ncc3cc(C#N)cnc32)ncc1-c1cn(CC2CC2)cn1` [Example 229, 1-(5-(1-(cyclopropylmethyl)-1H-imidazol-4-yl)-4-(isopropylamino)pyridin-2-yl)-1H-pyrazolo[3,4-b]pyridine-5-carbonitrile] in this work.
An IC50 (IRAK4) of 4 nM and an EC50 ([1]; Homo sapiens) of 530 nM were found for `CC(C)Nc1cc(-n2ncc3cc(C#N)cnc32)ncc1-c1cn(CC2CCC2)cn1` [Example 233, 1-(5-(1-(cyclobutylmethyl)-1H-imidazol-4-yl)-4-(isopropylamino)pyridin-2-yl)-1H-pyrazolo[3,4-b]pyridine-5-carbonitrile] in this work.
An IC50 (IRAK4) of 16 nM and an EC50 ([1]; Homo sapiens) of 440 nM were found for `CC(=O)N1CC(Cn2cnc(-c3cnc(-n4ncc5cc(C#N)cnc54)cc3NC(C)C)c2)C1` [Example 234, 1-(5-(1-((1-acetylazetidin-3-yl)methyl)-1H-imidazol-4-yl)-4-(isopropylamino)pyridin-2-yl)-1H-pyrazolo[3,4-b]pyridine-5-carbonitrile] in this work.
An IC50 (IRAK4) of 11 nM and an EC50 ([1]; Homo sapiens) of 990 nM were found for `CC(C)Nc1cc(-n2ncc3cc(C#N)cnc32)ncc1-c1cn(CC2COC2)cn1` [Example 236, 1-(4-(isopropylamino)-5-(1-(oxetan-3-ylmethyl)-1H-imidazol-4-yl)pyridin-2-yl)-1H-pyrazolo[3,4-b]pyridine-5-carbonitrile] in this work.
